The text below walks through data of PubChem BioAssay AID330 (DTP/NCI, 2004).

Each structure is given as a SMILES string. Values joined by “and” are separate entries in the source; they are usually repeats but may differ in a detail not shown here. Equal entries are not always repeated. Toxic doses and inconclusive results are not listed.

The subject of this assay is P388 leukemia ip, CD2F1 mice, survival T/C. Nature of the assay: NCI In Vivo Anticancer Drug Screen. Data for tumor model P388 Leukemia (intraperitoneal) in CD2F1 (CDF1) mice. As to conditions: endpoint: median survival time, higher = longer survival. Summed up: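 Mice carrying the transplanted tumor received test compound or vehicle. Survival was recorded in each group, and the value is the treated-group measurement divided by that of the vehicle-treated control group.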

The mark [1] stands for this setting: dose: 25.0 mg/kg/injection, schedule: Q01DX005 (ip), vehicle: Klucel (hydroxypropylcellulose) (HPC).
The mark [2] stands for this setting: dose: 50.0 mg/kg/injection, schedule: Q01DX005 (ip), vehicle: Klucel (hydroxypropylcellulose) (HPC).
The mark [3] stands for this setting: dose: 50.0 mg/kg/injection, schedule: Q01DX009 (ip), vehicle: Klucel (hydroxypropylcellulose) (HPC).
Where [4] appears, read: dose: 100.0 mg/kg/injection, schedule: Q01DX009 (ip), vehicle: saline with Tween-80.
[5] abbreviates: dose: 200.0 mg/kg/injection, schedule: Q01DX009 (ip), vehicle: saline with Tween-80.
[6] abbreviates: dose: 400.0 mg/kg/injection, schedule: Q01DX009 (ip), vehicle: saline with Tween-80.
Where [7] appears, read: dose: 50.0 mg/kg/injection, schedule: Q01DX009 (ip), vehicle: saline.
Setting [8] is: dose: 100.0 mg/kg/injection, schedule: Q01DX009 (ip), vehicle: saline.
Where [9] appears, read: dose: 200.0 mg/kg/injection, schedule: Q01DX009 (ip), vehicle: saline.
The mark [10] stands for this setting: dose: 100.0 mg/kg/injection, schedule: Q01DX005 (ip), vehicle: Klucel (hydroxypropylcellulose) (HPC).
The mark [11] stands for this setting: dose: 100.0 mg/kg/injection, schedule: Q01DX001 (ip), vehicle: saline with Tween-80.
Setting [12] is: dose: 200.0 mg/kg/injection, schedule: Q01DX001 (ip), vehicle: saline with Tween-80.

`O=S(=O)(O)O.[Ga]`: the T/C runs as follows: (dose: 33.0 mg/kg/injection, schedule: Q04DX003 (ip), vehicle: saline sonified) 95 % of control; (dose: 50.0 mg/kg/injection, schedule: Q01DX009 (ip), vehicle: saline sonified) 100 % of control; (dose: 50.0 mg/kg/injection, schedule: Q04DX003 (ip), vehicle: saline sonified) 110 % of control.

As to `O=C([O][Bi]([c]1ccccc1)[c]1ccccc1)c1ccccc1`, the T/C was 113 % of control (dose: 6.25 mg/kg/injection, schedule: Q01DX005 (ip), vehicle: Klucel (hydroxypropylcellulose) (HPC)); 106 % of control (dose: 12.5 mg/kg/injection, schedule: Q01DX005 (ip), vehicle: Klucel (hydroxypropylcellulose) (HPC)); 102 % of control and 106 % of control under setting [1]; 122 % of control under setting [2].

In the case of `COc1cc2c(cc1OC)C(Cc1ccccc1NC(=O)c1ccc(C(=O)Nc3ccccc3CC3c4cc(OC)c(OC)cc4CCN3C)cc1)N(C)CC2` (stereo unspecified), the T/C is, setting by setting: (dose: 60.0 mg/kg/injection, schedule: Q01DX005 (ip), vehicle: saline with Tween-80) 89 % of control; (dose: 120.0 mg/kg/injection, schedule: Q01DX005 (ip), vehicle: saline with Tween-80) 88 % of control; (dose: 240.0 mg/kg/injection, schedule: Q01DX005 (ip), vehicle: saline with Tween-80) 94 % of control.

For the compound `Nc1ccc(-c2csc(-c3ccc(Br)cc3)n2)cc1`, the T/C runs as follows: (dose: 12.5 mg/kg/injection, schedule: Q01DX009 (ip), vehicle: Klucel (hydroxypropylcellulose) (HPC)) 100 % of control; (dose: 25.0 mg/kg/injection, schedule: Q01DX009 (ip), vehicle: Klucel (hydroxypropylcellulose) (HPC)) 91 % of control; under setting [3], 88 % of control.

In the case of `CCCC1CCCC[N+]1(C)[B-](F)(F)F` (stereo unspecified), the T/C (dose: 3.12 mg/kg/injection, schedule: Q01DX005 (ip), vehicle: saline) is 100 % of control; the T/C (dose: 6.25 mg/kg/injection, schedule: Q01DX005 (ip), vehicle: saline) is 99 % of control; the T/C (dose: 12.5 mg/kg/injection, schedule: Q01DX005 (ip), vehicle: saline) was 103 % of control; the T/C (dose: 25.0 mg/kg/injection, schedule: Q01DX005 (ip), vehicle: saline) was 100 % of control and 102 % of control.

As for `C1CC2CC1C13OC1C1(CC1)C1OC213` (stereo unspecified), the T/C (dose: 100.0 mg/kg/injection, schedule: Q01DX001 (ip), vehicle: Klucel (hydroxypropylcellulose) (HPC)) was 106 % of control and 123 % of control; the T/C (dose: 200.0 mg/kg/injection, schedule: Q01DX001 (ip), vehicle: Klucel (hydroxypropylcellulose) (HPC)) is 109 % of control; the T/C (dose: 400.0 mg/kg/injection, schedule: Q01DX001 (ip), vehicle: Klucel (hydroxypropylcellulose) (HPC)) was 157 % of control.

On to `CC(C)N[C@@H]1CCC[C@@H]2c3ccccc3[C@@]21O`, for which the T/C runs as follows: (dose: 60.0 mg/kg/injection, schedule: Q01DX005 (ip), vehicle: saline) 96 % of control; (dose: 120.0 mg/kg/injection, schedule: Q01DX005 (ip), vehicle: saline) 95 % of control.

On to `O=C1CCSCC1`, for which the T/C is, setting by setting: (dose: 50.0 mg/kg/injection, schedule: Q01DX009 (ip), vehicle: saline with Tween-80) 99 % of control; under setting [4], 113 % of control; under setting [5], 100 % of control; under setting [6], 98 % of control.

`Cn1c(=O)c2[nH]c(Cl)nc2n(C)c1=O`: the T/C runs as follows: (dose: 25.0 mg/kg/injection, schedule: Q01DX009 (ip), vehicle: saline) 100 % of control; under setting [7], 102 % of control; under setting [8], 102 % of control; under setting [9], 99 % of control.

Consider `CSc1nc(N)c(C(=O)Nc2ccccc2)s1`, for which the T/C was 103 % of control under setting [3]; 101 % of control (dose: 100.0 mg/kg/injection, schedule: Q01DX009 (ip), vehicle: Klucel (hydroxypropylcellulose) (HPC)); 100 % of control (dose: 200.0 mg/kg/injection, schedule: Q01DX009 (ip), vehicle: Klucel (hydroxypropylcellulose) (HPC)).

As for `Cc1cn2ccccc2c[n+]1=O`, the T/C is 104 % of control (dose: 5.0 mg/kg/injection, schedule: Q01DX009 (ip), vehicle: saline sonified) and 90 % of control (dose: 10.0 mg/kg/injection, schedule: Q01DX009 (ip), vehicle: saline sonified).

`O=C(O)C(CS(=O)(=O)O)Nc1ncnc2nc[nH]c12` (stereo unspecified): the T/C was 100 % of control under setting [8]; 100 % of control under setting [9]; 109 % of control (dose: 400.0 mg/kg/injection, schedule: Q01DX009 (ip), vehicle: saline).

`O=C1c2cccc(Oc3ccccc3)c2C(=O)c2cccc(Oc3ccccc3)c21`: the T/C was 95 % of control (dose: 100.0 mg/kg/injection, schedule: Q04DX003 (ip), vehicle: saline with Tween-80); 86 % of control (dose: 200.0 mg/kg/injection, schedule: Q04DX003 (ip), vehicle: saline with Tween-80); 90 % of control (dose: 400.0 mg/kg/injection, schedule: Q04DX003 (ip), vehicle: saline with Tween-80).

Turning to `CCn1c(-c2c(Cl)cc(O)cc2Cl)cc2c(Cl)cc(O)cc21`, the T/C is 87 % of control (dose: 60.0 mg/kg/injection, schedule: Q01DX005 (ip), vehicle: Klucel (hydroxypropylcellulose) (HPC)) and 92 % of control (dose: 120.0 mg/kg/injection, schedule: Q01DX005 (ip), vehicle: Klucel (hydroxypropylcellulose) (HPC)).

Regarding `O=C(Cc1nc2ccccc2[nH]1)NNC(=S)NC1CCCCC1`, the T/C under setting [2] was 87 % of control and the T/C under setting [10] is 88 % of control.

Consider `O=C(O)c1c(Cl)c(Cl)c(Cl)c(Cl)c1Cl`, for which the T/C is, setting by setting: under setting [4], 95 % of control; under setting [5], 100 % of control; under setting [6], 113 % of control.

Turning to `CC1C(c2ccccc2)OC(N2CCOCC2)C(C)(C)CN1C` (stereo unspecified), the T/C is 108 % of control and 93 % of control (dose: 50.0 mg/kg/injection, schedule: Q01DX005 (ip), vehicle: saline with Tween-80); 98 % of control and 101 % of control and 116 % of control (dose: 100.0 mg/kg/injection, schedule: Q01DX005 (ip), vehicle: saline with Tween-80); 101 % of control and 119 % of control and 121 % of control (dose: 200.0 mg/kg/injection, schedule: Q01DX005 (ip), vehicle: saline with Tween-80); 101 % of control (dose: 400.0 mg/kg/injection, schedule: Q01DX005 (ip), vehicle: saline with Tween-80).

Regarding `CCC(c1ccc(OC)cc1)C(NCC(=O)N/N=C/c1c[nH]c2ccccc12)c1ccc(OC)cc1` (stereo unspecified), the T/C is, setting by setting: under setting [11], 94 % of control; under setting [12], 87 % of control.

For `C=C(C)C1(O)c2c(Cl)cccc2C(c2ccccc2)c2cccc(Cl)c21` (stereo unspecified), the T/C by setting is: under setting [11], 110 % of control; under setting [12], 107 % of control; (dose: 400.0 mg/kg/injection, schedule: Q01DX001 (ip), vehicle: saline with Tween-80) 100 % of control.

`COP(=O)(OC)O/C(=C/Cl)c1cc(Cl)cc(Cl)c1Cl`: the T/C is, setting by setting: (dose: 100.0 mg/kg/injection, schedule: Q04DX003 (ip), vehicle: Klucel (hydroxypropylcellulose) (HPC)) 102 % of control; (dose: 200.0 mg/kg/injection, schedule: Q04DX003 (ip), vehicle: Klucel (hydroxypropylcellulose) (HPC)) 100 % of control; (dose: 400.0 mg/kg/injection, schedule: Q04DX003 (ip), vehicle: Klucel (hydroxypropylcellulose) (HPC)) 111 % of control.

For `CC(C)CCC1=CC(=O)c2c(O)ccc(O)c2C1=O`, the T/C is 97 % of control (dose: 2.5 mg/kg/injection, schedule: Q04DX002 (ip), vehicle: DMSO); 97 % of control (dose: 5.0 mg/kg/injection, schedule: Q04DX002 (ip), vehicle: DMSO); 95 % of control (dose: 10.0 mg/kg/injection, schedule: Q04DX002 (ip), vehicle: DMSO).

As to `O=c1n(-c2ccccc2)c(=O)n2n1C1CC3c4ccccc4C1C32` (stereo unspecified), the T/C runs as follows: under setting [1], 101 % of control; under setting [2], 97 % of control; under setting [10], 94 % of control.

Regarding `CC(=O)Nc1ccc(C(=O)C=O)cc1`, the T/C under setting [4] was 119 % of control.

For `CCOC(=O)c1ccc(N/N=C\C(C)=N/NC(=S)NC)cc1`, the T/C runs as follows: (dose: 100.0 mg/kg/injection, schedule: Q01DX001 (ip), vehicle: saline) 108 % of control; (dose: 200.0 mg/kg/injection, schedule: Q01DX001 (ip), vehicle: saline) 108 % of control; (dose: 400.0 mg/kg/injection, schedule: Q01DX001 (ip), vehicle: saline) 100 % of control.

As to `C1CCC2CC3NC3CC2C1` (stereo unspecified), the T/C runs as follows: under setting [7], 101 % of control; under setting [8], 105 % of control; under setting [9], 101 % of control.

For `ClCC1(CCl)COC(c2ccccc2)OC1`, the T/C runs as follows: under setting [4], 100 % of control; under setting [5], 100 % of control; under setting [6], 95 % of control.
